Results reported in patent US4113855A, “Composition of matter and process” (The Upjohn Company, priority 1977, dated 1978).

Experiments:
[1] = system: P. aeruginosa Strain No. 6429; assay: standard agar disc plate assay using 6.35 mm paper discs; assay type: cell-based, Pseudomonas aeruginosa; settings: for Zones of Inhibition: strain 6429, 0.03 ml of 1 mg/ml per 6.35 mm disc; for zone of inhibition at 1000 µg/mL: Pseudomonas aeruginosa, read-out: Zones of Inhibition
[2] = system: P. aeruginosa Strain No. 6429; assay: nutrient broth dilution test; assay type: cell-based, Pseudomonas aeruginosa; settings: strain 6429; 32° C., 18 hours
Description: (§1) Antibiotic 354 was also tested on a nutrient broth dilution test against the same Pseudomonas strains listed above. The test tubes were incubated at 32° C. for 18 hours.

[3] = system: P. aeruginosa Strain No. 6430; assay: nutrient broth dilution test; assay type: cell-based, Pseudomonas aeruginosa; settings: strain 6430; 32° C., 18 hours
Description: as §1

[4] = system: P. aeruginosa Strain No. 6431; assay: nutrient broth dilution test; assay type: cell-based, Pseudomonas aeruginosa; settings: strain 6431; 32° C., 18 hours
Description: as §1

[5] = system: P. aeruginosa Strain No. 6434; assay: nutrient broth dilution test; assay type: cell-based, Pseudomonas aeruginosa; settings: strain 6434; 32° C., 18 hours
Description: as §1

[6] = system: P. aeruginosa Strain No. 6436; assay: nutrient broth dilution test; assay type: cell-based, Pseudomonas aeruginosa; settings: strain 6436; 32° C., 18 hours
Description: as §1

[7] = system: P. aeruginosa Strain No. 6433; assay: nutrient broth dilution test; assay type: cell-based, Pseudomonas aeruginosa; settings: strain 6433; 32° C., 18 hours
Description: as §1

[8] = system: P. aeruginosa Strain No. 6435; assay: nutrient broth dilution test; assay type: cell-based, Pseudomonas aeruginosa; settings: strain 6435; 32° C., 18 hours
Description: as §1

[9] = system: P. aeruginosa Strain No. 6433; assay: standard agar disc plate assay using 6.35 mm paper discs; assay type: cell-based, Pseudomonas aeruginosa; settings: for Zones of Inhibition: strain 6433, 0.03 ml of 1 mg/ml per 6.35 mm disc
Pseudomonas mildenbergii = assay: standard disc plate assay (12.7 mm assay discs); assay type: cell-based; settings: 1 mg/ml, 12.7 mm discs
Gram-negative bacteria = assay: antibacterial activity; assay type: cell-based
[10] = system: Pseudomonas mildenbergii (UC 3029); assay: agar disc plate assay, biounits; assay type: cell-based; settings: vs. UC 3029; BU = concentration giving a 20 mm zone of inhibition
Description: The assay is an agar disc plate assay using the microorganism P. mildenbergii. The agar medium is buffered with 0.1 M phosphate buffer at a pH of 7.4. A unit volume (0.08 ml) of solution containing the substance to be assayed is placed on a 12.7 mm paper disc which is then placed on an agar plate seeded with the assay organism. The agar plate is then incubated for 16-18 hours at 37° C. A biounit (BU) is defined as the concentration of the antibiotic which gives a 20 mm zone of inhibition under the above assay conditions.

[11] = system: P. aeruginosa Strain No. 6430; assay: standard agar disc plate assay using 6.35 mm paper discs; assay type: cell-based, Pseudomonas aeruginosa; settings: for Zones of Inhibition: strain 6430, 0.03 ml of 1 mg/ml per 6.35 mm disc; for zone of inhibition at 1000 µg/mL: Pseudomonas aeruginosa, read-out: Zones of Inhibition
[12] = system: P. aeruginosa Strain No. 6435; assay: as above; assay type: cell-based, Pseudomonas aeruginosa; settings: for Zones of Inhibition: strain 6435, 0.03 ml of 1 mg/ml per 6.35 mm disc; for zone of inhibition at 1000 µg/mL: Pseudomonas aeruginosa, read-out: Zones of Inhibition
[13] = system: P. aeruginosa Strain No. 6434; assay: as above; assay type: cell-based, Pseudomonas aeruginosa; settings: for Zones of Inhibition: strain 6434, 0.03 ml of 1 mg/ml per 6.35 mm disc; for zone of inhibition at 1000 µg/mL: Pseudomonas aeruginosa, read-out: Zones of Inhibition
Bacillus subtillis = assay: standard disc plate assay (12.7 mm assay discs); assay type: cell-based; settings: 1 mg/ml, 12.7 mm discs
species of Proteus = assay: antibacterial activity; assay type: cell-based
[14] = system: Klebsiella pneumoniae UC 57; assay: microplate broth dilution assay using nutrient broth; assay type: cell-based
Source text: (§2) On testing antibiotic 354 by a microplate broth dilution assay using nutrient broth the following spectrum was observed.

[15] = system: Salmonella schottmuelleri UC 126; assay: as above; assay type: cell-based
Source text: as §2

Salmonella typhi = assay: as above; assay type: cell-based
Source text: as §2

[16] = system: Staphylococcus aureus UC 76; assay: as above; assay type: cell-based
Source text: as §2

[17] = system: Streptococcus fecalis UC 694; assay: as above; assay type: cell-based
Source text: as §2

Proteus mirabilis = assay: as above; assay type: cell-based
Source text: as §2

[18] = system: Klebsiella pneumoniae UC 58; assay: as above; assay type: cell-based
Source text: as §2

[19] = system: Serratia marcescens UC 131; assay: as above; assay type: cell-based
Source text: as §2

species of Pseudomonas = assay: antibacterial activity; assay type: cell-based
[20] = system: P. aeruginosa Strain No. 6431; assay: standard agar disc plate assay using 6.35 mm paper discs; assay type: cell-based, Pseudomonas aeruginosa; settings: for Zones of Inhibition: strain 6431, 0.03 ml of 1 mg/ml per 6.35 mm disc; for zone of inhibition at 1000 µg/mL: Pseudomonas aeruginosa, read-out: Zones of Inhibition
basicity = assay type: physicochemical
[21] = system: P. aeruginosa Strain No. 6436; assay: standard agar disc plate assay using 6.35 mm paper discs; assay type: cell-based, Pseudomonas aeruginosa; settings: for Zones of Inhibition: strain 6436, 0.03 ml of 1 mg/ml per 6.35 mm disc; for zone of inhibition at 1000 µg/mL: Pseudomonas aeruginosa, read-out: Zones of Inhibition
[22] = system: Pseudomonas aeruginosa GN-315 (UC 6149); assay: antibacterial activity; assay type: cell-based
[23] = system: Pseudomonas aeruginosa strains obtained from Bronson Hospital; assay: antibacterial activity against hospital strains; assay type: cell-based; settings: Kalamazoo

## N=C1C=C[C@@]2(O)C[C@H](Cl)CN12 [Antibiotic 354]
[1]
  Zones of Inhibition: 22 mm
[2]
  Minimum Inhibitory Concentration: 25 µg/mL
[3]
  Minimum Inhibitory Concentration: 25 µg/mL
[4]
  Minimum Inhibitory Concentration: 25 µg/mL
[5]
  Minimum Inhibitory Concentration: 12.5 µg/mL
[6]
  Minimum Inhibitory Concentration: 25 µg/mL
[7]
  Minimum Inhibitory Concentration: 25 µg/mL
[8]
  Minimum Inhibitory Concentration: 12.5 µg/mL
[9]
  Zones of Inhibition: 21 mm
Pseudomonas mildenbergii
  Zone Of Inhibition: 30 mm
Gram-negative bacteria
  activity against Gram-negative bacteria: active
[10]
  potency in biounits: 8 BU/mg
[11]
  Zones of Inhibition: 33 mm
[12]
  Zones of Inhibition: 24 mm
[13]
  Zones of Inhibition: 20 mm
Bacillus subtillis
  Zone Of Inhibition: 25 mm
Species of Proteus
  activity against species of Proteus: very active
[14]
  Minimum Inhibitory Concentration: 31.2 µg/mL
[15]
  Minimum Inhibitory Concentration: 7.8 µg/mL
Salmonella typhi
  Minimum Inhibitory Concentration: 15.6 µg/mL
[16]
  Minimum Inhibitory Concentration: 31.2 µg/mL
[17]
  Minimum Inhibitory Concentration: 125 µg/mL
Proteus mirabilis
  Minimum Inhibitory Concentration: 31.2 µg/mL
[18]
  Minimum Inhibitory Concentration: 7.8 µg/mL
[19]
  Minimum Inhibitory Concentration: 3.9 µg/mL
Species of Pseudomonas
  activity against species of Pseudomonas: very active
[20]
  Zones of Inhibition: 22 mm
basicity
  basicity: strongly basic
[21]
  Zones of Inhibition: 22 mm
[22]
  activity / resistance, P. aeruginosa GN-315: active
[23]
  activity / resistance, Bronson Hospital P. aeruginosa strains: active

## NC[C@H]1O[C@H](O[C@H]2[C@H](O)[C@@H](O[C@H]3O[C@H](CO)[C@@H](O)[C@H](N)[C@H]3O)[C@H](N)C[C@@H]2N)[C@H](O)[C@@H](O)[C@@H]1O [Kanamycin]
[1]
  zone of inhibition at 1000 µg/mL: 11 mm
[9]
  Zones of Inhibition: trace
[11]
  zone of inhibition at 1000 µg/mL: 11 mm
[12]
  zone of inhibition at 1000 µg/mL: 0 mm
[13]
  zone of inhibition at 1000 µg/mL: 13 mm
[20]
  zone of inhibition at 1000 µg/mL: 0 mm
[21]
  zone of inhibition at 1000 µg/mL: 0 mm
[22]
  activity / resistance, P. aeruginosa GN-315: resistant
[23]
  activity / resistance, Bronson Hospital P. aeruginosa strains: relatively resistant

## CCn1cc(C(=O)O)c(=O)c2ccc(C)nc21 [Nalidixic Acid]
[1]
  zone of inhibition at 1000 µg/mL: 13 mm
[9]; Pseudomonas aeruginosa, read-out: Zones of Inhibition
  zone of inhibition at 1000 µg/mL: 13 mm
[11]
  zone of inhibition at 1000 µg/mL: 13 mm
[12]
  zone of inhibition at 1000 µg/mL: 17 mm
[13]
  zone of inhibition at 1000 µg/mL: 13 mm
[20]
  zone of inhibition at 1000 µg/mL: 12 mm
[21]
  zone of inhibition at 1000 µg/mL: 13 mm
[22]
  activity / resistance, P. aeruginosa GN-315: resistant
[23]
  activity / resistance, Bronson Hospital P. aeruginosa strains: relatively resistant

## Gentamycin
[1]
  Zones of Inhibition: 14 mm
[9]
  Zones of Inhibition: 11 mm
[11]
  Zones of Inhibition: 14 mm
[12]
  Zones of Inhibition: 13 mm
[13]
  Zones of Inhibition: 22 mm
[20]
  Zones of Inhibition: trace
[21]
  Zones of Inhibition: 9 mm
[22]
  activity / resistance, P. aeruginosa GN-315: resistant
[23]
  activity / resistance, Bronson Hospital P. aeruginosa strains: relatively resistant

## Polymyxin B
[1]
  Zones of Inhibition: trace
[9]
  Zones of Inhibition: trace
[11]
  Zones of Inhibition: trace
[12]
  Zones of Inhibition: trace
[13]
  Zones of Inhibition: trace
[20]
  Zones of Inhibition: trace
[21]
  Zones of Inhibition: 9 mm
[23]
  activity / resistance, Bronson Hospital P. aeruginosa strains: relatively resistant
